Test results as given in patent publication US9789101B2, “Methods and compositions for treating microbial infection using pyrroloquinone” (HELPERBY THERAPEUTICS LIMITED, priority 2010, dated 2017).
Structures can show the parent of a compound that is named as a salt.

How the values were obtained:
[1] = system: log phase Staphylococcus aureus; experiment: Chequerboard analysis of HT00800059 and mupirocin against log phase Staphylococcus aureus; format: cell-based, Staphylococcus aureus (Oxford); conditions: for optical density reading at 405 nm: 24 hours
Method: Staphylococcus aureus (Oxford); Gram positive; Reference strain. Log phase growth of […] sensitive Staphylococcus aureus (MSSA) was carried out as follows: • Bacteria were grown in 10 ml of nutrient broth (No. 2, (Oxoid)) overnight at 37° C. with continuous shaking at 120 rpm. […] The cultures were incubated at 37° C. with shaking for 1-2 hours to reach log CFU 6. Viability of the bacteria was estimated by colony forming unit (CFU) counts. From serial 10-fold dilutions of the experimental cultures, 100 μl samples were added to triplicate plates of nutrient agar plates (Oxoid) or blood agar plates (Oxoid). CFUs were counted after incubation of the plates at 37° C. for 24 hours. […] 290 μl of the cell suspension was added to each well of the 96 well plate, which was incubated at 37° C. for 24 hours. […] MIC determination: The optical density of the bacterial cells was read at 405 nm using a plate reader (Bio TEK). The MIC concentration was determined as the lowest concentration of drug which inhibits the bacterial growth. […] HT00800059 was dissolved in H2O to the stock solution 30.07 mg/ml. […] HT00800059 (30.7 mg/ml) was performed in a serial of 2 fold dilutions. This was followed by the addition of 280 μl of log phase culture at 10^6 CFU/ml to make the final concentrations of each drug as shown. In the above table, values in bold text are for HT00800059. Values in plain text are for mupirocin. The numbers shown in each well are μg/ml. Incubation of the compounds with the bacterial suspension was carried out for 24 hours. The kill effects of the drug combination were measured by optical density reading at 405 nm with a plate reader (Bio TEK). The fractional inhibitory concentration (FIC) index was carried out as following: (MIC of drug A, tested in combination)/(MIC of drug A, tested alone)+(MIC of drug B, tested in combination)/(MIC of drug B, tested alone). The interaction was defined as synergistic if the FIC index was <1, additive if the FIC index was =1 and antagonistic if the FIC index was >1.

[2] = system: log phase (i.e. multiplying) bacteria; conditions: J. Am. Pharm. Assoc. 1956; cited from earlier work
[3] = system: Mupirocin Resistant S. aureus (28 Passages); experiment: Chequerboard analysis of HT00800059 and mupirocin against mupirocin resistant S. aureus (28 passages); format: cell-based, Staphylococcus aureus
Method: (§1) Staphylococcus aureus (Oxford); Gram positive; Reference strain.
(§2) Log phase growth of mupirocin resistant Staphylococcus aureus (MSSA) was carried out as follows: • Bacteria were grown in 10 ml of nutrient broth (No. 2, (Oxoid)) overnight at 37° C. with continuous shaking at 120 rpm. The overnight cultures were diluted 1000× with iso-sensitest broth. The cultures were incubated at 37° C. with shaking for 1-2 hours to reach log CFU 6. Viability of the bacteria was estimated by colony forming unit (CFU) counts. From serial 10-fold dilutions of the experimental cultures, 100 μl samples were added to triplicate plates of nutrient agar plates (Oxoid) or blood agar plates (Oxoid). CFUs were counted after incubation of the plates at 37° C. for 24 hours.
(§3) Bacterial cultures: 10 μl of overnight cultures was added to 10 ml of fresh iso-sensitest broth to make the inoculation to 10^6 CFU/ml. 290 μl of the cell suspension was added to each well of the 96 well plate, which was incubated at 37° C. for 24 hours. 300 μl of iso-sensitest broth without bacterial cells were added to wells of the plate as a no bacterial control.
(§4) MIC determination: The optical density of the bacterial cells was read at 405 nm using a plate reader (Bio TEK). The MIC concentration was determined as the lowest concentration of drug which inhibits the bacterial growth.
(§5) Mupirocin was dissolved in DMSO to the stock concentration of 10 mg/ml. HT00800059 was dissolved in H2O to the stock solution 30.07 mg/ml.
(§6) Mupirocin (10 mg/ml) was firstly diluted to 3.84 mg/ml, then further diluted in a serial of 2 fold dilutions. HT00800059 (30.7 mg/ml) was performed in a serial of 2 fold dilutions.
(§7) This was followed by the addition of 280 μl of log phase culture at 10^6 CFU/ml to make the final concentrations of each drug as shown in Table 1 and Table 2.
(§8) In the above table, values in bold text are for HT00800059. Values in plain text are for mupirocin. The numbers shown in each well are μg/ml.
(§9) Incubation of the compounds with the bacterial suspension was carried out for 24 hours. The kill effects of the drug combination were measured by optical density reading at 405 nm with a plate reader (Bio TEK).
(§10) The fractional inhibitory concentration (FIC) index was carried out as following: (MIC of drug A, tested in combination)/(MIC of drug A, tested alone)+(MIC of drug B, tested in combination)/(MIC of drug B, tested alone). The interaction was defined as synergistic if the FIC index was <1, additive if the FIC index was =1 and antagonistic if the FIC index was >1.

[4] = system: Mupirocin Resistant S. aureus (24 Passages); experiment: Chequerboard analysis of HT00800059 and mupirocin against mupirocin resistant S. aureus (24 passages); format: cell-based, Staphylococcus aureus
Method: as §1, §2, §3, §4, §5, §6, §7, §8, §9, §10

[5] = Staphylococcus aureus, read-out: alone MIC

CCCCOc1ccc(C(=O)CCN2CCCCC2)cc1 [HT00800059, dyclonine (1-(4-Butoxyphenyl)-3-(1-piperidinyl)-1-propanone) hydrochloride]
MIC [1, 5]: 512 µg/mL | MIC before combination ([1]; iso-sensitest broth): 512 µg/mL | MIC post combination ([1]; iso-sensitest broth): 64 µg/mL | optical density reading at 405 nm ([1]; iso-sensitest broth, HT00800059 1 μg/ml, mupirocin μg/ml: 1,0.5,0.25,0.125,0.0625,0.03125,0.015625,0): 1.49 | optical density reading at 405 nm ([1]; iso-sensitest broth, HT00800059 2 μg/ml, mupirocin μg/ml: 1,0.5,0.25,0.125,0.0625,0.03125,0.015625,0): 1.47 | optical density reading at 405 nm ([1]; iso-sensitest broth, HT00800059 4 μg/ml, mupirocin μg/ml: 1,0.5,0.25,0.125,0.0625,0.03125,0.015625,0): 1.46 | optical density reading at 405 nm ([1]; iso-sensitest broth, HT00800059 8 μg/ml, mupirocin μg/ml: 1,0.5,0.25,0.125,0.0625,0.03125,0.015625,0): 1.47 | optical density reading at 405 nm ([1]; iso-sensitest broth, HT00800059 16 μg/ml, mupirocin μg/ml: 1,0.5,0.25,0.125,0.0625,0.03125,0.015625,0): 1.52 | optical density reading at 405 nm ([1]; iso-sensitest broth, HT00800059 32 μg/ml, mupirocin μg/ml: 1,0.5,0.25,0.125,0.0625,0.03125,0.015625,0): 1.55 | optical density reading at 405 nm ([1]; iso-sensitest broth, HT00800059 64 μg/ml, mupirocin μg/ml: 1,0.5,0.25,0.125,0.0625,0.03125,0.015625,0): 1.34 | optical density reading at 405 nm ([1]; iso-sensitest broth, HT00800059 128 μg/ml, mupirocin μg/ml: 1,0.5,0.25,0.125,0.0625,0.03125,0.015625,0): 1.20 | optical density reading at 405 nm ([1]; iso-sensitest broth, HT00800059 256 μg/ml, mupirocin μg/ml: 1,0.5,0.25,0.125,0.0625,0.03125,0.015625,0): 1.09 | optical density reading at 405 nm ([1]; iso-sensitest broth, HT00800059 512 μg/ml, mupirocin μg/ml: 1,0.5,0.25,0.125,0.0625,0.03125,0.015625,0): 0.36 | optical density reading at 405 nm ([1]; iso-sensitest broth, HT00800059 1024 μg/ml, mupirocin μg/ml: 1,0.5,0.25,0.125,0.0625,0.03125,0.015625,0): 0.36 | MIC before combination ([1]; nutrient broth): 512 µg/mL | MIC post combination ([1]; nutrient broth): 64 µg/mL | optical density reading at 405 nm ([1]; nutrient broth, HT00800059 1 μg/ml, mupirocin μg/ml: 1,0.5,0.25,0.125,0.625 [sic],0.03125,0.15625 [sic],0): 0.858 | optical density reading at 405 nm ([1]; nutrient broth, HT00800059 2 μg/ml, mupirocin μg/ml: 1,0.5,0.25,0.125,0.625 [sic],0.03125,0.15625 [sic],0): 0.884 | optical density reading at 405 nm ([1]; nutrient broth, HT00800059 4 μg/ml, mupirocin μg/ml: 1,0.5,0.25,0.125,0.625 [sic],0.03125,0.15625 [sic],0): 0.885 | optical density reading at 405 nm ([1]; nutrient broth, HT00800059 8 μg/ml, mupirocin μg/ml: 1,0.5,0.25,0.125,0.625 [sic],0.03125,0.15625 [sic],0): 0.867 | optical density reading at 405 nm ([1]; nutrient broth, HT00800059 16 μg/ml, mupirocin μg/ml: 1,0.5,0.25,0.125,0.625 [sic],0.03125,0.15625 [sic],0): 0.840 | optical density reading at 405 nm ([1]; nutrient broth, HT00800059 32 μg/ml, mupirocin μg/ml: 1,0.5,0.25,0.125,0.625 [sic],0.03125,0.15625 [sic],0): 0.759 | optical density reading at 405 nm ([1]; nutrient broth, HT00800059 64 μg/ml, mupirocin μg/ml: 1,0.5,0.25,0.125,0.625 [sic],0.03125,0.15625 [sic],0): 0.721 | optical density reading at 405 nm ([1]; nutrient broth, HT00800059 128 μg/ml, mupirocin μg/ml: 1,0.5,0.25,0.125,0.625 [sic],0.03125,0.15625 [sic],0): 0.528 | optical density reading at 405 nm ([1]; nutrient broth, HT00800059 256 μg/ml, mupirocin μg/ml: 1,0.5,0.25,0.125,0.625 [sic],0.03125,0.15625 [sic],0): 0.524 | optical density reading at 405 nm ([1]; nutrient broth, HT00800059 512 μg/ml, mupirocin μg/ml: 1,0.5,0.25,0.125,0.625 [sic],0.03125,0.15625 [sic],0): 0.284 | optical density reading at 405 nm ([1]; nutrient broth, HT00800059 1024 μg/ml, mupirocin μg/ml: 1,0.5,0.25,0.125,0.625 [sic],0.03125,0.15625 [sic],0): 0.291 | HT00800059 MIC in combination ([1]; with mupirocin 0.125 μg/ml): 64 µg/mL | activity in vitro against a variety of log phase bacteria [2]: activity | MIC [3, 5]: 512 µg/mL | MIC before combination ([3]; resistant strain 28 passages): 512 µg/mL | MIC post combination ([3]; resistant strain 28 passages): 64 µg/mL | HT00800059 MIC in combination ([3]; with mupirocin 32 μg/ml, 28 passages): 64 µg/mL | MIC [4, 5]: 512 µg/mL | MIC before combination ([4]; resistant strain 24 passages): 512 µg/mL | MIC post combination ([4]; resistant strain 24 passages): 64 µg/mL | HT00800059 MIC in combination ([4]; with mupirocin 8 μg/ml, 24 passages): 64 µg/mL
